{
  "source": "patent EP2604265A1",
  "about": "“P2x7 antagonists as frontline or adjunctive treatment against status epilepticus” (Royal College of Surgeons in Ireland (RCSI), priority 2011, dated 2013)",
  "key": {"[1]": {"target": "T1, P2X7R (Mus musculus, UniProt Q9Z1M0)", "T1 construct": "endogenous in cells; host or cells: primary hippocampal neurons from E17 mouse embryos", "T1 sequence (Q9Z1M0 1-595)": "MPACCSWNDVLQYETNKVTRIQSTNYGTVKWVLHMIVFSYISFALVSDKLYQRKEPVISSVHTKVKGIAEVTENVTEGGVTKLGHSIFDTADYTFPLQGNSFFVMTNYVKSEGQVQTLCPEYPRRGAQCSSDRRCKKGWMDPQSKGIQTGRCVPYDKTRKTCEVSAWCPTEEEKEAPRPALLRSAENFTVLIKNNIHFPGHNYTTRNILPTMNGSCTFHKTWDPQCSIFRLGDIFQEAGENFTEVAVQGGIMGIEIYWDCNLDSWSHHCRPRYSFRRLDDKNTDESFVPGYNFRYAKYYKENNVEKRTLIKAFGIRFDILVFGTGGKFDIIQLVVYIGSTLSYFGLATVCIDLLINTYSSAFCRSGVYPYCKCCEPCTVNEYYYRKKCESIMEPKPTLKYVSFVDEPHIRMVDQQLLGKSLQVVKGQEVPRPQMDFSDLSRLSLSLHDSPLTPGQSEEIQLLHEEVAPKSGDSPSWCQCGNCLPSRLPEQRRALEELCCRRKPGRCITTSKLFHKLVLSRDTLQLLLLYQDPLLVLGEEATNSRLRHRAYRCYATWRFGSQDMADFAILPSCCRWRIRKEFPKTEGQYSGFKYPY", "assay": "Fura-2 calcium microfluorimetry, BzATP-evoked calcium entry", "type": "cell-based", "settings": "cultured hippocampal neurons; BzATP 100 µM; BBG 1 µM", "experimental": "(§1) Hippocampal neurons were prepared as described previously (Diaz-Hernandez et al., 2008). Briefly, hippocampi were obtained from E17 mouse embryos and, after dissection and washing three times in Ca^2+/Mg^2+-free HBSS, tissue was digested in the same solution with 0.25% trypsin for 15 min at 37°C. Hippocampi were then washed three times in Ca^2+/Mg^2+-free HBSS and dissociated with a firepolished Pasteur pipette. Cells were counted, resuspended in plating medium (MEM, 10% fetal bovine serum, 0.6% glucose) and plated at a density of 5,000 cells/cm^2 on poly-L-lysine coated coverslips (1 mg/ml). After plating, neurons were cultured for 24-72 h in neuronal culture medium (Neurobasal, B-27, glutamax-I). For biochemical experiments, hippocampal neurons were plated on polylysine-coated (1 mg/ml) 60-mm plates at a density of 200,000 cells/cm^2, and cultured for 72 h in neuronal culture medium. AraC was added at a final concentration of 5 µM after 2 days in culture.\n(§2) Calcium microfluorimetric analysis in single neurons was carried out according to (Diaz-Hernandez et al., 2001). […]\n(§3) Neurons were visualized using a Plan Fluor x40 S/0.5-1.3 oil lens. […] The background was subtracted at each wavelength and the 340 / 380 ratio was calculated. The data are represented as the normalized F340/F380 fluorescence ratio, which increases as [Ca^2+]i increases."}, "[2]": {"system": "glutamate receptors", "assay": "Fura-2 calcium microfluorimetry, glutamate-evoked calcium entry", "type": "cell-based, mouse", "settings": "cultured hippocampal neurons; glutamate 100 µM; BBG 1 µM", "experimental": "as §1, §2, §3"}, "[3]": {"target": "T2, P2X2 (Homo sapiens, UniProt Q9UBL9)", "T2 sequence (Q9UBL9 1-471)": "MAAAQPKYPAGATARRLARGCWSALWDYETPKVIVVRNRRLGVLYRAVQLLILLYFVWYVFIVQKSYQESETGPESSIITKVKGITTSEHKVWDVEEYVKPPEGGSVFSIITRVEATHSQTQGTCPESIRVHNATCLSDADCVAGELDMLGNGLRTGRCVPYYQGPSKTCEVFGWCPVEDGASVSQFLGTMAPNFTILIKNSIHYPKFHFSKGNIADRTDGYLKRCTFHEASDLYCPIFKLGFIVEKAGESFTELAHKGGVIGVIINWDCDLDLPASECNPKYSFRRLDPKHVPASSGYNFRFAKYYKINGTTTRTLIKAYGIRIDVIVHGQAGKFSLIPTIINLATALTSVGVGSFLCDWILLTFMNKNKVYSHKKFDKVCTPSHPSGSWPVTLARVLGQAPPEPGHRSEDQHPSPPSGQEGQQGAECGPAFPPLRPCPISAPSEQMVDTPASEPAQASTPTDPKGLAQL", "settings": "selectivity of BBG; cited from earlier work"}},
  "data": [
    {"smiles": "CCOc1ccc(Nc2ccc(C(=C3C=CC(=[N+](CC)Cc4cccc(S(=O)(=O)[O-])c4)C=C3C)c3ccc(N(CC)Cc4cccc(S(=O)(=O)O)c4)cc3C)cc2)cc1", "note": "[BBG, Brilliant Blue G]", "values": [
      {"measurement": "P2X7R-gated (BzATP-induced) calcium entry", "setting": "[1]", "result": "effective to block"},
      {"measurement": "glutamate-induced calcium entry", "setting": "[2]", "result": "failed to alter"},
      {"measurement": "inhibition of P2X2", "setting": "[3]", "result": "low micromolar range"}
    ]}
  ]
}
